PubChem BioAssay (NCI)
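Each compound was tested at five concentrations against cells in 96-well plates for 48 hours. At the GI50, growth is halved. Definition used: TGI = concentration required for complete inhibition of growth.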

Columns and labels:
Assay in all cases: NCI-60 cell line screen, 48 h
[1] = tested on: MOLT-4 leukemia
[2] = tested on: SK-MEL-2 melanoma
[3] = tested on: DU-145 prostate
[4] = tested on: NCI-H522 lung
[5] = tested on: SNB-75 CNS
[6] = tested on: U251 CNS
[7] = tested on: LOX IMVI melanoma
[8] = tested on: SK-OV-3 ovarian
[9] = tested on: 786-0 renal
[10] = tested on: NCI-H23 lung
[11] = tested on: RXF 393 renal
[12] = tested on: HL-60(TB) leukemia
[13] = tested on: EKVX NSCLC
[14] = tested on: SR leukemia
[15] = tested on: UACC-62 melanoma
[16] = tested on: HCT-15 colon
[17] = tested on: SNB-19 CNS
[18] = tested on: MCF7 breast
[19] = tested on: MDA-MB-231 breast
[20] = tested on: COLO 205 colon
[21] = tested on: HS 578T breast
[22] = tested on: SF-268 CNS
[23] = tested on: HCT-116 colon
[24] = tested on: A498 renal
[25] = tested on: T-47D breast
[26] = tested on: M14 melanoma
[27] = tested on: RPMI-8226 leukemia
[28] = tested on: ACHN renal
[29] = tested on: NCI/ADR-RES ovarian
[30] = tested on: UO-31 renal
[31] = tested on: HT29 colon
[32] = tested on: OVCAR-8 ovarian
[33] = tested on: HOP-62 NSCLC
[34] = tested on: NCI-H226 lung
[35] = tested on: K-562 leukemia
[36] = tested on: BT-549 breast
[37] = tested on: NCI-H460 lung
[38] = tested on: OVCAR-4 ovarian
[39] = tested on: UACC-257 melanoma
[40] = tested on: TK-10 renal
[41] = tested on: HCC-2998 colon
[42] = tested on: HOP-92 NSCLC
[43] = tested on: KM12 colon
[44] = tested on: OVCAR-5 ovarian
[45] = tested on: IGROV1 ovarian
[46] = tested on: MALME-3M melanoma
[47] = tested on: PC-3 prostate
[48] = tested on: SK-MEL-28 melanoma
[49] = tested on: MDA-MB-435
[50] = tested on: SW-620 colon
[51] = tested on: CAKI-1 renal
[52] = tested on: OVCAR-3 ovarian
[53] = tested on: SF-295 CNS
[54] = tested on: CCRF-CEM leukemia
[55] = tested on: SF-539 CNS
[56] = tested on: SN12C renal
[57] = tested on: A549 NSCLC
[58] = tested on: SK-MEL-5 melanoma

NCCOc1ncccc1/C=C1\c2ccccc2-c2ccc([N+](=O)[O-])cc21
GI50 [1]: < 10 nM
TGI [1]: 74.6 nM
GI50 [2]: 314 nM
TGI [2]: 754 nM
GI50 [3]: 19.3 nM
TGI [3]: 224 nM
GI50 [4]: 68.4 nM
TGI [4]: 438 nM
GI50 [5]: 48.8 nM
TGI [5]: 437 nM
GI50 [6]: 26.9 nM
TGI [6]: 303 nM
GI50 [7]: 24.3 nM
TGI [7]: 163 nM
GI50 [8]: 48.9 nM
TGI [8]: 309 nM
GI50 [9]: 26.8 nM
TGI [9]: 139 nM
GI50 [10]: 47.9 nM
TGI [10]: 413 nM
GI50 [11]: 171 nM
TGI [11]: 443 nM
GI50 [12]: 16.5 nM
TGI [12]: 121 nM
GI50 [13]: 116 nM
TGI [13]: 474 nM
GI50 [14]: < 10 nM
TGI [14]: 1100 nM
GI50 [15]: 78.4 nM
TGI [15]: 386 nM
GI50 [16]: 26.6 nM
TGI [16]: 871 nM
GI50 [17]: 35.6 nM
TGI [17]: 1040 nM
GI50 [18]: < 10.9 nM
TGI [18]: 409 nM
GI50 [19]: 206 nM
TGI [19]: 613 nM
GI50 [20]: 137 nM
TGI [20]: 343 nM
GI50 [21]: 255 nM
TGI [21]: 1260 nM
GI50 [22]: 82.7 nM
TGI [22]: 619 nM
GI50 [23]: 45.5 nM
TGI [23]: 237 nM
GI50 [24]: 158 nM
TGI [24]: 578 nM
GI50 [25]: 28.3 nM
TGI [25]: 305 nM
GI50 [26]: 43.9 nM
TGI [26]: 322 nM
GI50 [27]: 38.3 nM
TGI [27]: 317 nM
GI50 [28]: 23.5 nM
TGI [28]: 119 nM
GI50 [29]: 154 nM
TGI [29]: 1120 nM
GI50 [30]: 43.9 nM
TGI [30]: 186 nM
GI50 [31]: 89.8 nM
TGI [31]: 1040 nM
GI50 [32]: 68.6 nM
TGI [32]: 705 nM
GI50 [33]: 26.1 nM
TGI [33]: 133 nM
GI50 [34]: 110 nM
TGI [34]: 366 nM
GI50 [35]: 33.7 nM
TGI [35]: 1230 nM
GI50 [36]: 181 nM
TGI [36]: 994 nM
GI50 [37]: < 10.4 nM
TGI [37]: 154 nM
GI50 [38]: 194 nM
TGI [38]: 827 nM
GI50 [39]: 209 nM
TGI [39]: 1390 nM
GI50 [40]: 126 nM
TGI [40]: 282 nM
GI50 [41]: 137 nM
TGI [41]: 322 nM
GI50 [42]: 23.4 nM
TGI [42]: 477 nM
GI50 [43]: 110 nM
TGI [43]: 546 nM
GI50 [44]: 211 nM
TGI [44]: 680 nM
GI50 [45]: 131 nM
TGI [45]: 728 nM
GI50 [46]: 55 nM
TGI [46]: 275 nM
GI50 [47]: 177 nM
TGI [47]: 1110 nM
GI50 [48]: 241 nM
TGI [48]: 1060 nM
GI50 [49]: 161 nM
TGI [49]: 362 nM
GI50 [50]: 72.5 nM
TGI [50]: 834 nM
GI50 [51]: 28.3 nM
TGI [51]: 231 nM
GI50 [52]: 181 nM
TGI [52]: 449 nM
GI50 [53]: 24.6 nM
TGI [53]: 161 nM
GI50 [54]: 18.1 nM
TGI [54]: 97.3 nM
GI50 [55]: 135 nM
TGI [55]: 362 nM
GI50 [56]: 28.4 nM
TGI [56]: 178 nM
GI50 [57]: < 10 nM
TGI [57]: 204 nM
GI50 [58]: 101 nM
TGI [58]: 253 nM
